The values that follow come from ChEMBL document CHEMBL1146899, “Redefining the structure-activity relationships of 2,6-methano-3-benzazocines. 4. Opioid receptor binding properties of 8-[N-(4'-phenyl)-phenethyl)carboxamido] analogues of cyclazocine and ethylketocycalzocine” (J Med Chem, 2006).

In experiment [1] the target is Delta-type opioid receptor (Homo sapiens, UniProt P41143). Kind of experiment: Displacement of [3H]naltrindole from human delta opioid receptor expressed in CHO cells. The experiment is classed as cell-based.
Another experiment addresses Mu-type opioid receptor (Homo sapiens, UniProt P35372). Kind of experiment: Displacement of [3H]DAMGO from human mu opioid receptor expressed in CHO cells. The experiment is classed as cell-based.
Experiment [2] deals with Kappa-type opioid receptor (Homo sapiens, UniProt P41145). Briefly: biochemical. The experiment is classed as cell-based, CHO.
Description: Displacement of [3H]U-69593 from human kappa opioid receptor expressed in CHO cells
Another experiment deals with Mus musculus. Kind of experiment: Antinociceptive activity in mouse at 1 mg/kg, ip. Details: dose 1 mg/kg. In kind it is functional, organism-based.

The source made the active and inactive calls. No cut-off for these calls is given here.

Chain of Mu-type opioid receptor (P35372 whole entry): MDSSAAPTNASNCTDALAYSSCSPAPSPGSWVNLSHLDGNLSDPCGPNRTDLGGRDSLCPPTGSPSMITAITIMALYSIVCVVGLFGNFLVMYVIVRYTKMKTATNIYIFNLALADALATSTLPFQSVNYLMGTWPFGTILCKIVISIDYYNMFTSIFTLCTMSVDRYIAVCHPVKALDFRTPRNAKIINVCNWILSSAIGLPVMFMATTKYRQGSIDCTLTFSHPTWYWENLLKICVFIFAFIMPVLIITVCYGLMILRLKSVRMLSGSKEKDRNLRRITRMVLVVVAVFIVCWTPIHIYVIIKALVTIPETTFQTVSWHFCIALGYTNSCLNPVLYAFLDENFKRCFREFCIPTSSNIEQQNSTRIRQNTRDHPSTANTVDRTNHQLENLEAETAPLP
Chain of Delta-type opioid receptor (P41143 whole entry): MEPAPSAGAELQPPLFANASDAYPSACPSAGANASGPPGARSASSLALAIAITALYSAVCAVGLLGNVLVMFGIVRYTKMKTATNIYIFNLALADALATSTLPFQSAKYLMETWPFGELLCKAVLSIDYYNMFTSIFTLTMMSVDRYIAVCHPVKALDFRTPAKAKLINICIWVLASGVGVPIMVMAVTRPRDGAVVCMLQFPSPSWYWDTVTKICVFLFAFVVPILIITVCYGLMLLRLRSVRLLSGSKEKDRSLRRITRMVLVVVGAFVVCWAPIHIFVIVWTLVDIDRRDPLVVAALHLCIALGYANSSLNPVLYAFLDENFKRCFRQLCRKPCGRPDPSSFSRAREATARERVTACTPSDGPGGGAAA
Chain of Kappa-type opioid receptor (P41145 whole entry): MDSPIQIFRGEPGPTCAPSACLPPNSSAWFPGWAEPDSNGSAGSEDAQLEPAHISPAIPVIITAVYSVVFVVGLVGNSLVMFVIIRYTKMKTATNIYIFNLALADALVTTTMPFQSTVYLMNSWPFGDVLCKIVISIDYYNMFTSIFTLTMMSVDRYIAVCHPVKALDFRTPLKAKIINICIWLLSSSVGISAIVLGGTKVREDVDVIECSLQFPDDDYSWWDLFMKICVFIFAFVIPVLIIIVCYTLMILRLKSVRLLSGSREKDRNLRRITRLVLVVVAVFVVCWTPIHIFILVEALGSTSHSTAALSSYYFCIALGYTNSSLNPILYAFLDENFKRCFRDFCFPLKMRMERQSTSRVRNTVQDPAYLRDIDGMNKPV

On to `C[C@H]1C2Cc3ccc(C(=O)N(C)CCc4ccc(-c5ccccc5)cc4)cc3[C@@]1(C)CCN2CC1CC1` (racemic), for which the Ki in experiment [1] stood at 12 nM; at Mu-type opioid receptor, 6.7 nM; in experiment [2] it was 11 nM.

As to `CC[C@@]12CCN(CC3CC3)C(C(=O)c3ccc(C(=O)NCCc4ccc(-c5ccccc5)cc4)cc31)[C@@H]2C` (mixture of isomers), the figures for the inhibition constant (Ki) (in experiment [1]; on Mu-type opioid receptor; in experiment [2]) were 3.9 nM, 3.1 nM and 1.3 nM, respectively.

On to `C[C@H]1C2Cc3ccc(C(=O)NCc4ccc(-c5ccccc5)cc4)cc3[C@@]1(C)CCN2CC1CC1` (mixture of isomers), for which the Ki stood at 170 nM in experiment [1], 11 nM at Mu-type opioid receptor and 26 nM in experiment [2].

As for `C[C@H]1C2Cc3ccc(C(=O)NCCc4ccccc4)cc3[C@@]1(C)CCN2CC1CC1` (mixture of isomers), the inhibition constant Ki in experiment [1] amounted to 59 nM; at Mu-type opioid receptor it was 3.5 nM; in experiment [2], 1.7 nM.

As to `C[C@H]1C2Cc3ccc(C(=O)NCc4ccccc4)cc3[C@@]1(C)CCN2CC1CC1` (mixture of isomers), the inhibitory constant (Ki) in experiment [1] was determined as 210 nM; on Mu-type opioid receptor, 27 nM; in experiment [2], 36 nM.

For the molecule `CC[C@@]12CCN(CC3CC3)C(C(=O)c3ccc(C(N)=O)cc31)[C@@H]2C`, the inhibition constant (Ki) in experiment [1] was determined as 23 nM; on Mu-type opioid receptor, 2.1 nM; in experiment [2], 0.47 nM.

Consider `C[C@H]1C2Cc3ccc(C(=O)Nc4ccccc4)cc3[C@@]1(C)CCN2CC1CC1`, for which the Ki in experiment [1] stood at 2100 nM; on Mu-type opioid receptor, 840 nM; in experiment [2], 270 nM.

In the case of `C[C@H]1C2Cc3ccc(C(=O)Nc4ccc(-c5ccccc5)cc4)cc3[C@@]1(C)CCN2CC1CC1` (mixture of isomers), the values for the inhibition constant (Ki) (in experiment [1]; on Mu-type opioid receptor; in experiment [2]) were 110 nM, 18 nM and 27 nM, respectively.

With `C[C@H]1C2Cc3ccc(C(N)=O)cc3[C@@]1(C)CCN2CC1CC1`, the inhibition constant Ki in experiment [1] was 5.2 nM. Also, in the experiment on Mus musculus, the outcome was Active.

For the molecule `C[C@H]1C2Cc3ccc(C(=O)NCCCc4ccccc4)cc3[C@@]1(C)CCN2CC1CC1` (mixture of isomers), the inhibitory constant (Ki) in experiment [1] was found to be 47 nM; on Mu-type opioid receptor, 2.5 nM; in experiment [2], 3 nM.
